Here are results for 3 compounds from BindingDB's records for doi:10.1016/S1074-5521(03)00159-5 (Merck Research Laboratories, 2003).

Usually IC50 stands for the concentration at which inhibition is half-maximal.

Bounds are passed on as bounds.

Sequence of Mitogen-activated protein kinase 14 (Q16539 whole entry): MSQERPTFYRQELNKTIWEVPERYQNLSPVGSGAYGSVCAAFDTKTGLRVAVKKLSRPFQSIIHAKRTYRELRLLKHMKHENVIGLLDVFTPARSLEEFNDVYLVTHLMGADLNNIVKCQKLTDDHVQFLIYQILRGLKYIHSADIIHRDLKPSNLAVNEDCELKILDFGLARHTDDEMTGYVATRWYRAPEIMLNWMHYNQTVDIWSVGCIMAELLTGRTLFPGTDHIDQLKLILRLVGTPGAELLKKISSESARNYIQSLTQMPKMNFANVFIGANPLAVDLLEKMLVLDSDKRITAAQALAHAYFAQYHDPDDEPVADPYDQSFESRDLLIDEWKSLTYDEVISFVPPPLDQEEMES

The test has as its target Mitogen-activated protein kinase 14 (Homo sapiens, UniProt Q16539). As to the kind of experiment: Homogeneous Time-Resolved Fluorescence (HTRF) Enzyme Assay. Particulars: pH 7; 22 °C. The protocol: The HTRF signal is calculated as a ratio of the A-counts to B-counts. The signal produced is proportional to the amount of JNK3 or p38 kinase activity present during the kinase reaction phase.
In general terms: Time-resolved FRET reads energy transfer from a long-lived donor to a nearby acceptor.
`CCCn1c(C2CCNCC2)nc(-c2ccc(Cl)c(Cl)c2)c1-c1ccnc(NC2CCCCC2)n1` displayed an IC50 of 4 nM. This lies in the single-digit nanomolar range.
As to `CCCn1c(C2CCN(C)CC2)nc(-c2ccc(Cl)c(Cl)c2)c1-c1ccnc(NC2CC2)n1`, the IC50 is 0.078 nM.
Turning to `Oc1ccc(-c2cnc3ccc4ccncc4c3c2)cc1` [4-(2,7-phenanthrolin-9-yl)phenol], the IC50 is over 40000 nM.
